# In patent US20220095609A1, “FREEZING OF BIOLOGICAL MATERIAL” (SCI-GROUP AS, priority 2018, published 2022):
# Legend:
# cells = assay: MTS bioassay, viability after freezing and thawing; format: cell-based
# Excerpt: […] the presence of a combined magnetic (0.2-0.3 T)-pulsing electric fields (20V (220V/m)-20kHZ), in the presence or absence of DMSO (0-5%) measured as the fraction of cells retaining their full proliferative capacity after freezing, monitored with a rapid bioassay-MTS-as an alternative to conventional plating efficiency testing.
# The experiment included the standard method used by most researchers, i.e. freezing with 5% DMSO in a “Nalgene Mr Frosty” apparatus (Merck KgaA, Germany), operated with a 15 minutes phase-transition time corresponding to the state of the art freezing rate of 1 degree per minute.
# (§1) The cells were grown to 70% confluence in 162 cm^2 flasks as monolayer cultures in Ham's F12 medium supplemented with 10% fetal calf serum (FBS). The cells were kept in continuous exponential growth by re-culturing twice per week. Harvest for re-culturing or for freezing was done by removing the growth medium, rinsing two times in 1.5 ml trypsin EDTA solution (0.05% and 0.02% respectively), and incubating cultures for 5 min at 37° C. in the residual trypsin solution. The trypsinization was stopped by adding Ham's F12 medium with FBS.
# (§2) Cells were resuspended and counted using Countess Automated Cell counter with Trypan Blue Stain (0.4%) to estimate the cell viability.
# (§3) The cell suspension was transferred to 15 ml tube and centrifuged (200xg, 5 min, 4° C.). The supernatant was removed and the cell pellets were resuspended in cold FBS to give a final concentration of 2×10^6 cells/ml. 0.5 ml of the cell suspension was transferred to 2 ml cryo-tube. Equal volume (0.5 ml) freezing medium with or without DMSO-medium was added to each cryotube to give a final 5% concentration of DMSO and 1×10^6 cells per ml in each tube.
# After 15 days in liquid nitrogen samples were thawed and cells seeded for MTS assay as follows: • cells were transferred to 15 ml tubes containing 4 ml culture media (total volume of 4+1=5 ml) and centrifuged at 200×g, 10 min, 4° C. • cells were resuspended in 1 ml media with 1% FBS and further diluted 10 times to give a concentration of 1×10^5/ml based on the initial counting before freezing. • After dilution, 0.2 ml of cells from each freezing condition was seeded in 96 well plates and the plates were incubated at 37° C. until the next day. • After the overnight incubation, media was removed and 0.1 ml of a fresh 1% FBS media was added. 20 μl of MTS reagent was added. • Finally, OD490 values were read after 1-4 hours incubation. The number of viable cells/well were calculated based on a standard curve generated using ongoing cell cultures. The calculation was performed in GraphPad Prism 8, using four parameter nonlinear logistic regression and the curve fitting function.
# T98G glioblastoma cells = assay: Colony formation (plating efficiency) after freezing and thawing, T98G; format: cell-based, human; conditions: Standard freezing with 5% DMSO (30 min -20° C., 45 min ~-80° C., liquid N2); T-98G
# Excerpt: (§4) The objective was to test the importance of the duration of ice-formation time (=time to remove latent heat during ice formation) of seed stocks of two established human cells lines: T-47D breast cancer cells and T98G glioblastoma cells, for viability after thawing. In addition to variation in ice-forming time two variables have been tested: • Cells frozen without DMSO or with 5% DMSO • Cells frozen within a mixed strong magnetic (0.2-0.3 T)-pulsing electric (20V (220V/m)-20kHZ) field (hereinafter termed “Strong MAG/PEF”), or just outside the Field Box in a weak magnetic (0,005-0,008T)-pulsing electric (7-16V (75-185V/m)-20 kHz) (hereinafter “Weak MAG/PEF) field.
# (§5) The cells of both types were grown as monolayer cultures in RPMI 1640 medium (Gibco, Rockwill, Md., USA) supplemented with 10% fetal calf serum (Gibco), 2 mM L-glutamine, 200 units/I insulin and 1% penicillin/streptomycin (Gibco). […]
# (§6) For each cell type separate preparation of samples for freezing was performed by standard trypsin treatment of several flasks and pooling of the cells after removal of the trypsin solution and re-suspending of the cells in RPMI-medium. After pooling the cell numbers per ml were accurately counted on a flow cytometer and thereafter dilutions of cell suspensions suitable to obtain the concentration of cells desired for transfer to the cryo-tubes were made for each cell type. […]
# [1] = system: T-47D breast cancer cells; assay: Colony formation (plating efficiency) after freezing and thawing, T-47D; format: cell-based, human; conditions: Standard freezing with 5% DMSO (30 min -20° C., 45 min ~-80° C., liquid N2)
# Excerpt: as §4, §5, §6
# [2] = system: adherent CHO cells (chinese hamster ovary cells K1); assay: Colony formation (plating efficiency) after freezing and thawing, adherent CHO cells; format: cell-based
# Excerpt: The objective was to test the importance of the duration of ice-formation (=time to remove latent heat during ice formation) of seed stocks of adherent CHO cells (chinese hamster ovary cells K1 for viability after thawing. In addition to variation in ice-forming time two variables have been tested: • Cells frozen without DMSO or with 5% DMSO • Cells frozen within a mixed strong magnetic (0,2-0,3T)-pulsing electric (20V (220V/m)-20kHZ) field (hereinafter termed “Strong MAG/PEF”), or just outside the Field Box in a weak magnetic (0,005-0,008T)-pulsing electric (7-16V (75-185V/m)-20 kHz) (hereinafter “Weak MAG/PEF) field.
# as §1, with “grown” for “grown to 70% confluence”, “serum.” for “serum (FBS).”
# as §2
# as §3, with “(200 g,” for “(200xg,”
# After 10 days in liquid nitrogen samples were thawed and cells seeded for colony formation. There were 3 parallel flasks for each sample tested. The control was the traditional procedure used in the laboratory with 5% DMSO and with 30 min in −20° C., 45 min in ˜−80° C. and final storage in liquid N2.
# The flasks were incubated for colony formation in a Steri-cult 200 incubator operated at 37° C. and with 5% CO2 in the atmosphere. Incubation continued for six days. For counting of macroscopic colonies cells were fixed in ethanol and stained with methylene blue.
smiles,measurement,setting,value
"C[S+](C)[O-] [DMSO, Dimethyl sulfoxide]",difference in viability between 2 min and 3 min (optimal point) phase-transition time,cells; 1% DMSO,13%
same,difference in viability between 3 min and 4 min phase-transition time,cells; 1% DMSO,39%
same,percentage viability after freezing and thawing,"cells; 1% DMSO, phase-transition time 1.4 min, magnetic 0.2-0.3 T, pulsing electric field",8%
same,percentage viability after freezing and thawing,"cells; 1% DMSO, phase-transition time 1.8 min, magnetic 0.2-0.3 T, pulsing electric field",26%
same,percentage viability after freezing and thawing,"cells; 1% DMSO, phase-transition time 2 min, magnetic 0.2-0.3 T, pulsing electric field",36%
same,percentage viability after freezing and thawing,"cells; 1% DMSO, phase-transition time 2.2 min, magnetic 0.2-0.3 T, pulsing electric field",35%
same,percentage viability after freezing and thawing,"cells; 1% DMSO, phase-transition time 2.4 min, magnetic 0.2-0.3 T, pulsing electric field",41%
same,percentage viability after freezing and thawing,"cells; 1% DMSO, phase-transition time 2.6 min, magnetic 0.2-0.3 T, pulsing electric field",45%
same,percentage viability after freezing and thawing,"cells; 1% DMSO, phase-transition time 2.7 min, magnetic 0.2-0.3 T, pulsing electric field",47%
same,percentage viability after freezing and thawing,"cells; 1% DMSO, phase-transition time 3 min, magnetic 0.2-0.3 T, pulsing electric field",47%
same,percentage viability after freezing and thawing,"cells; 1% DMSO, phase-transition time 4 min, magnetic 0.2-0.3 T, pulsing electric field",4%
same,percentage viability after freezing and thawing,"cells; 1% DMSO, phase-transition time 5.5 min, magnetic 0.2-0.3 T, pulsing electric field",4%
same,percentage viability after freezing and thawing,"cells; 2% DMSO, phase-transition time 1.4 min, magnetic 0.2-0.3 T, pulsing electric field",36%
same,percentage viability after freezing and thawing,"cells; 2% DMSO, phase-transition time 1.8 min, magnetic 0.2-0.3 T, pulsing electric field",57%
same,percentage viability after freezing and thawing,"cells; 2% DMSO, phase-transition time 2 min, magnetic 0.2-0.3 T, pulsing electric field",53%
same,percentage viability after freezing and thawing,"cells; 2% DMSO, phase-transition time 2.2 min, magnetic 0.2-0.3 T, pulsing electric field",61%
same,percentage viability after freezing and thawing,"cells; 2% DMSO, phase-transition time 2.4 min, magnetic 0.2-0.3 T, pulsing electric field",52%
same,percentage viability after freezing and thawing,"cells; 2% DMSO, phase-transition time 2.6 min, magnetic 0.2-0.3 T, pulsing electric field",63%
same,percentage viability after freezing and thawing,"cells; 2% DMSO, phase-transition time 2.7 min, magnetic 0.2-0.3 T, pulsing electric field",65%
same,percentage viability after freezing and thawing,"cells; 2% DMSO, phase-transition time 3 min, magnetic 0.2-0.3 T, pulsing electric field",66%
same,percentage viability after freezing and thawing,"cells; 2% DMSO, phase-transition time 4 min, magnetic 0.2-0.3 T, pulsing electric field",27%
same,percentage viability after freezing and thawing,"cells; 2% DMSO, phase-transition time 5.5 min, magnetic 0.2-0.3 T, pulsing electric field",17%
same,percentage viability after freezing and thawing,"cells; 5% DMSO, phase-transition time 1.8 min, magnetic 0.2-0.3 T, pulsing electric field",76%
same,percentage viability after freezing and thawing,"cells; 5% DMSO, phase-transition time 2.2 min, magnetic 0.2-0.3 T, pulsing electric field",74%
same,percentage viability after freezing and thawing,"cells; 5% DMSO, phase-transition time 2.4 min, magnetic 0.2-0.3 T, pulsing electric field",90%
same,percentage viability after freezing and thawing,"cells; 5% DMSO, phase-transition time 2.6 min, magnetic 0.2-0.3 T, pulsing electric field",98%
same,percentage viability after freezing and thawing,"cells; 5% DMSO, phase-transition time 2.7 min, magnetic 0.2-0.3 T, pulsing electric field",97%
same,percentage viability after freezing and thawing,"cells; 5% DMSO, phase-transition time 3 min, magnetic 0.2-0.3 T, pulsing electric field",97%
same,percentage viability after freezing and thawing,"cells; 5% DMSO, phase-transition time 4 min, magnetic 0.2-0.3 T, pulsing electric field",99%
same,percentage viability after freezing and thawing,"cells; 5% DMSO, phase-transition time 5.5 min, magnetic 0.2-0.3 T, pulsing electric field",99%
same,percentage viability after freezing and thawing,"cells; 5% DMSO, phase-transition time 15 min, standard method, Nalgene Mr Frosty, 1 degree per minute",68%
same,Plating efficiency—PE (%),T98G glioblastoma cells,57%
same,Plating efficiency—PE (%),[1],80-90%
same,PE: plating efficiency (%),"[2]; 5% DMSO, ice formation time 1 min 55 sec, Strong MAG/PEF",88%
same,PE: plating efficiency (%),"[2]; 5% DMSO, ice formation time 1 min 55 sec, Weak MAG/PEF",98%
same,PE: plating efficiency (%),"[2]; 5% DMSO, ice formation time 4 min 8 sec, Weak MAG/PEF",95%
same,PE: plating efficiency (%),"[2]; 5% DMSO, ice formation time 5 min 7 sec, Strong MAG/PEF",72%
same,PE: plating efficiency (%),"[2]; 5% DMSO, ice formation time 5 min 7 sec, Weak MAG/PEF",64%
same,PE: plating efficiency (%),[2]; 4 min,107 (artefacted) %
